Laboratory results from patent publication US6339045B1, “N-(unsubstituted or substituted)-4-substituted-6-(unsubstituted or substituted)phenoxy-2-pyridinecarboxamides or thiocarboxamides, processes for producing the same, and herbicides” (Kureha Kagaku Kogyo Kabushiki Kaisha, priority 1995, dated 2002).

Columns and labels:
Experiment in all cases: Herbicidal effect by foliage and soil treatment
Type in all cases: in vivo
Settings in all cases: 10 g ai/10a, evaluated after 14 days
[1] = test system: black nightshade (Solanum nigrum)
In short: (§1)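 Scores are ratings of growth versus untreated plants 14 days after treatment. Plants grown to cotyledonal–bifoliate stage in granular soil at 19 to 25° C received a foliage-and-soil spray of test solution containing Tween 20, applied at a set compound amount.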

[2] = test system: cleavers (Galium aparine)
In short: as §1

[3] = test system: common blackjack (Bidens pilosa)
In short: as §1

[4] = test system: common chickweed (Stellaria media)
In short: as §1

[5] = test system: field bindweed (Convolvulus arvensis)
In short: as §1

[6] = test system: ivyleafspeedwell (Veronica hederaefolia)
In short: as §1

[7] = test system: kediock (Sinapis arvensis)
In short: as §1

[8] = test system: redroot pigweed (Amaranthus retroflexus)
In short: as §1

[9] = test system: sicklepod (Cassia obtusifolia)
In short: as §1

[10] = test system: velvetleaf (Abutilon theophrasti)
In short: as §1

[11] = test system: wild chamomile (Matricaria chamomilla)
In short: as §1

SMILES	herbicidal activity rating, SN (Solanum nigrum) [1]	herbicidal activity rating, GA (Galium aparine) [2]	herbicidal activity rating, BP (Bidens pilosa) [3]	herbicidal activity rating, SM (Stellaria media) [4]	herbicidal activity rating, CA (Convolvulus arvensis) [5]	herbicidal activity rating, VH (Veronica hederaefolia) [6]	herbicidal activity rating, SA (Sinapis arvensis) [7]	herbicidal activity rating, AR (Amaranthus retroflexus) [8]	herbicidal activity rating, CO (Cassia obtusifolia) [9]	herbicidal activity rating, AT (Abutilon theophrasti) [10]	herbicidal activity rating, MC (Matricaria chamomilla) [11]
COc1cc(Oc2cccc(C(F)(F)F)c2)nc(C(=O)NCCS(C)(=O)=O)c1 [Compound I-63]	5 (percentage of weeds killed was not less than 80%)	5 (percentage of weeds killed was not less than 80%)	4 (percentage of weeds killed was not less than 60% and less than 80%)	5 (percentage of weeds killed was not less than 80%)	5 (percentage of weeds killed was not less than 80%)	5 (percentage of weeds killed was not less than 80%)	5 (percentage of weeds killed was not less than 80%)	5 (percentage of weeds killed was not less than 80%)	5 (percentage of weeds killed was not less than 80%)	4 (percentage of weeds killed was not less than 60% and less than 80%)	4 (percentage of weeds killed was not less than 60% and less than 80%)
CCSCCNC(=O)c1cc(OC)cc(Oc2cccc(C(F)(F)F)c2)n1 [Compound I-67, N-{2-(ethylmercapto)ethyl}-4-methoxy-6-{3-(trifluoromethyl)phenoxy}-2-pyridine carboxamide]	5 (percentage of weeds killed was not less than 80%)	5 (percentage of weeds killed was not less than 80%)	3 (percentage of weeds killed was not less than 40% and less than 60%)	4 (percentage of weeds killed was not less than 60% and less than 80%)	5 (percentage of weeds killed was not less than 80%)	5 (percentage of weeds killed was not less than 80%)	5 (percentage of weeds killed was not less than 80%)	5 (percentage of weeds killed was not less than 80%)	5 (percentage of weeds killed was not less than 80%)	4 (percentage of weeds killed was not less than 60% and less than 80%)	3 (percentage of weeds killed was not less than 40% and less than 60%)
COc1cc(Oc2cccc(C(F)(F)F)c2)nc(C(=O)NCCC#N)c1 [Compound I-71]	5 (percentage of weeds killed was not less than 80%)	5 (percentage of weeds killed was not less than 80%)	5 (percentage of weeds killed was not less than 80%)	5 (percentage of weeds killed was not less than 80%)	5 (percentage of weeds killed was not less than 80%)	5 (percentage of weeds killed was not less than 80%)	5 (percentage of weeds killed was not less than 80%)	5 (percentage of weeds killed was not less than 80%)	5 (percentage of weeds killed was not less than 80%)	4 (percentage of weeds killed was not less than 60% and less than 80%)	4 (percentage of weeds killed was not less than 60% and less than 80%)
COc1cc(Oc2cccc(C(F)(F)F)c2)nc(C(=O)NCC(C)C)c1 [Compound I-72]	5 (percentage of weeds killed was not less than 80%)	5 (percentage of weeds killed was not less than 80%)	5 (percentage of weeds killed was not less than 80%)	5 (percentage of weeds killed was not less than 80%)	5 (percentage of weeds killed was not less than 80%)	5 (percentage of weeds killed was not less than 80%)	5 (percentage of weeds killed was not less than 80%)	5 (percentage of weeds killed was not less than 80%)	5 (percentage of weeds killed was not less than 80%)	4 (percentage of weeds killed was not less than 60% and less than 80%)	5 (percentage of weeds killed was not less than 80%)
CCC(C)NC(=O)c1cc(OC)cc(Oc2cccc(C(F)(F)F)c2)n1 (stereo not shown) [Compound I-73]	5 (percentage of weeds killed was not less than 80%)	5 (percentage of weeds killed was not less than 80%)	4 (percentage of weeds killed was not less than 60% and less than 80%)	5 (percentage of weeds killed was not less than 80%)	5 (percentage of weeds killed was not less than 80%)	5 (percentage of weeds killed was not less than 80%)	5 (percentage of weeds killed was not less than 80%)	5 (percentage of weeds killed was not less than 80%)	5 (percentage of weeds killed was not less than 80%)	5 (percentage of weeds killed was not less than 80%)	4 (percentage of weeds killed was not less than 60% and less than 80%)
